Laboratory results published in patent US12590062B2, “PD-1/PD-L1 inhibitors” (Gilead Sciences, Inc., priority 2017, dated 2026).

How the values were obtained:
PD-1/PD-L1 interaction = target: T1, PD-1/PD-L1 interaction (Homo sapiens, UniProt Q9NZQ7); test: PD-1/PD-L1 NFAT reporter co-culture assay; format: cell-based; conditions: Jurkat PD-1 NFAT-luciferase cells co-cultured with aAPC-PD-L1 CHO cells, 6 hrs at 37° C.; read-out: EC50 NFAT Luciferase
T1 construct: expressed in transfected cells; host or cells: CHO cells (aAPC-PD-L1) co-cultured with Jurkat cells overexpressing PD-1 and an NFAT-luciferase reporter
T1 sequence (Q9NZQ7 19-290): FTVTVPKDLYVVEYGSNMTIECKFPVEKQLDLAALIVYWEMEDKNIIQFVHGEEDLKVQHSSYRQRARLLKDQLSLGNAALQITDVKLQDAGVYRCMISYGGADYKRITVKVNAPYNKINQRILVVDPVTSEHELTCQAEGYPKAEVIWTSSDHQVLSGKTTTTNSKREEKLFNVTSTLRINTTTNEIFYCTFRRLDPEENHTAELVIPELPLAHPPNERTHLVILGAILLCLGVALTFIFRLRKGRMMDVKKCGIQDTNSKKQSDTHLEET
How it was run: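 Luminescence (ONE-Glo) after 6 h, 37 °C co-culture reports NFAT-luciferase in PD-1 Jurkat cells, which PD-1/PD-L1 engagement suppresses. Partner cells: CHO expressing anti-CD3 and PD-L1. EC50 from four-parameter dose-response fit.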

PD-1/PD-L1 = PD-1/PD-L1 (Homo sapiens, UniProt Q9NZQ7); test: PD-1/PD-L1 biochemical protein-protein interaction assay (ALPHA); format: binding; conditions: 0.3 nM His tagged PD-L1, 2.5 nM biotinylated Fc-PD-1, 60 minutes at 25° C., read-out: IC50 PD-L1-PD-1 Alpha IC50-mono PD-L1-fcP-D1
Chain of PD-1/PD-L1 (Q9NZQ7 19-238 limits assumed): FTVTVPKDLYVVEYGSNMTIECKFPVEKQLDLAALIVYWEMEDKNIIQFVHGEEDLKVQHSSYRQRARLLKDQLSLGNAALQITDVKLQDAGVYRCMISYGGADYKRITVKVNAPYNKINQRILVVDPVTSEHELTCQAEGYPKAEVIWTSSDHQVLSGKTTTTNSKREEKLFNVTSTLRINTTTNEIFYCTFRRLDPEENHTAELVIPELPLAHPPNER
How it was run: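 IC50 values derive from four-parameter fits of ALPHA signal decrease. Assay: 0.3 nM His-tagged PD-L1 with 2.5 nM biotinylated Fc-PD-1, Hepes pH 7.4 with 0.005% Tween 20 and 0.01% BSA, 60 min at 25° C, then anti-His acceptor and streptavidin donor beads.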

PD-L1 = target: T2, PD-L1 (Homo sapiens, UniProt Q9NZQ7); test: PD-L1/PD-L1 dimerization biochemical protein-protein interaction assay (ALPHA); format: binding; conditions: compound-induced PD-L1 dimerization, head prints '1 nM' (0.5 nM His-tagged PD-L1 and 0.5 nM FLAG-tagged PD-L1), read-out: AC50 PDL1 Dimer Alpha 1 nM
T2 construct: determine if they can specifically dimerize the extracellular domains of PD-L1
T2 sequence (Q9NZQ7 19-238 limits assumed): as above
T2 sequence (Q9NZQ7 19-238 limits assumed): as above
How it was run: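 After 2 h at 25 °C with compound, His- and FLAG-tagged PD-L1 ECDs (each 0.5 nM final; 25 mM Hepes pH 7.4, 150 mM NaCl) were detected by sequential anti-His acceptor and anti-FLAG donor bead incubations. Dose-response curves fitted to four-parameter equation for AC50.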

Row | SMILES | EC50 (PD-1/PD-L1 interaction) [nM] | IC50 (PD-1/PD-L1) [nM] | AC50 (PD-L1) [nM]
1 | COc1nc(O[C@H]2CCc3c(-c4cccc(-c5cnc6c(CNC[C@@H]7CCC(=O)N7)cn(C)c6n5)c4Cl)cccc32)c(Cl)cc1CN1CC[C@@H](C(=O)O)C1 [Example 528] | 89 | 0.068 | 63.3
2 | COc1nc(O[C@H]2CCc3c(-c4cccc(-c5cnc6c(CNC[C@@H]7CCC(=O)N7)cn(C)c6n5)c4Cl)cccc32)c(Cl)cc1CN1CC(C(=O)O)C1 [Example 529] | 165 | 0.064 | 56.2
3 | N#Cc1cncc(COc2nc(OCc3cccc(-c4cccc(-c5ccc(CNC[C@@H]6CCC(=O)N6)cc5)c4Cl)c3Cl)c(Br)cc2CNC[C@@H]2CCC(=O)N2)c1 [Example 540] | 103 | 0.593 | 126
4 | COc1cc(-c2cccc(-c3cccc(COc4nc(OCc5cncc(C#N)c5)c(CNC[C@@H]5CCC(=O)N5)cc4Br)c3Cl)c2Cl)ccc1CNC[C@@H]1CCC(=O)N1 [Example 541] | 93 | 0.641 | 70.4
5 | COc1cc(-c2cccc(-c3cccc(COc4nc(OC)c(CNC[C@@H]5CCC(=O)N5)cc4Br)c3Cl)c2Cl)ccc1CNC[C@@H]1CCC(=O)N1 [Example 542] | 197 | 1.24 | 136
6 | COc1nc(-c2cccc(-c3cccc(COc4nc(OCc5cncc(C#N)c5)c(CN5CCCC[C@H]5C(=O)O)cc4Br)c3Cl)c2Cl)ccc1C1=NCCN1 [Example 543] | 187 | 0.07 | 49.7
7 | CS(=O)(=O)c1cncc(COc2nc(OCc3cccc(-c4cccc(-c5ccc6c(c5)C[C@@H](N)C6)c4Cl)c3Cl)c(Br)cc2CN2CCCC[C@H]2C(=O)O)c1 [Example 544] | 109 | 0.09 | 17.3
8 | CC(C)(NCc1cc(Br)c(OCc2cccc(-c3cccc(-c4ccc5c(c4)C[C@@H](N)C5)c3Cl)c2Cl)nc1OCc1cncc(S(C)(=O)=O)c1)C(=O)O [Example 545] | 145 | 0.089 | 24.4
9 | CS(=O)(=O)c1cncc(COc2nc(OCc3cccc(-c4cccc(-c5ccc6c(c5)C[C@@H](N)C6)c4Cl)c3Cl)c(Br)cc2CNC[C@@H](O)CC(=O)O)c1 [Example 546] | 109 | 0.515 | 39.2
10 | C[C@](CO)(NCc1cc(Br)c(OCc2cccc(-c3cccc(-c4ccc5c(c4)C[C@@H](N)C5)c3Cl)c2Cl)nc1OCc1cncc(S(C)(=O)=O)c1)C(=O)O [Example 547] | 51 | 0.363 | 20.1
11 | COc1nc(OCc2cccc(-c3cccc(-c4ccc5c(c4)C[C@@H](N)C5)c3Cl)c2Cl)c(Br)cc1CNC[C@H](O)CC(=O)O [Example 548] | 197 | 0.676 | 74.6
12 | COc1nc(OCc2cccc(-c3cccc(-c4ccc5c(c4)C[C@@H](N)C5)c3Cl)c2Cl)c(Br)cc1CN[C@](C)(CO)C(=O)O [Example 549] | 177 | 0.355 | 54.6
13 | C[C@@](CO)(NCc1cc(Br)c(OCc2cccc(-c3cccc(-c4ccc5c(c4)C[C@@H](N)C5)c3Cl)c2Cl)nc1OCc1cncc(S(C)(=O)=O)c1)C(=O)O [Example 550] | 163 | 0.134 | 47.7
14 | CC(C)(NCc1cc(Br)c(OCc2cccc(-c3cccc(-c4ccc5c(c4)C[C@@H](N)C5)c3Cl)c2Cl)nc1OCc1cncc(C#N)c1)C(=O)O [Example 551] | 100 | 0.064 | 12.4
15 | N#Cc1cncc(COc2nc(OCc3cccc(-c4cccc(-c5ccc6c(c5)C[C@@H](N)C6)c4Cl)c3Cl)c(Br)cc2CNC[C@@H](O)CC(=O)O)c1 [Example 552] | 152 | 0.716 | 74.7
16 | C[C@](CO)(NCc1cc(Br)c(OCc2cccc(-c3cccc(-c4ccc5c(c4)C[C@@H](N)C5)c3Cl)c2Cl)nc1OCc1cncc(C#N)c1)C(=O)O [Example 553] | 70 | 0.101 | 17.7
17 | C[C@@](CO)(NCc1cc(Br)c(OCc2cccc(-c3cccc(-c4ccc5c(c4)C[C@@H](N)C5)c3Cl)c2Cl)nc1OCc1cncc(C#N)c1)C(=O)O [Example 554] | 148 | 0.15 | 39.5
18 | COc1nc(-c2cccc(-c3cccc(COc4nc(OCc5cncc(C#N)c5)c(CNCCO)cc4Br)c3Cl)c2Cl)ccc1C1=NCCN1 [Example 555] | 84 | 0.396 | 23.1
19 | COc1nc(-c2cccc(-c3cccc(COc4nc(OCc5cncc(C#N)c5)c(CNC[C@@H]5CCC(=O)N5)cc4Br)c3Cl)c2Cl)ccc1C1=NCCN1 [Example 556] | 86 | 0.194 | 37.7
20 | Cc1c(COc2cc(OCc3cncc(C#N)c3)c(CN[C@@](C)(CO)C(=O)O)cc2Cl)cccc1-c1cccc(Nc2nccc3cc(CNCCO)cnc23)c1C [Example 557] | 135 | 0.201 | 137

Next, values leading:

Row | EC50 (PD-1/PD-L1 interaction) [nM] | IC50 (PD-1/PD-L1) [nM] | AC50 (PD-L1) [nM] | SMILES
21 | 51 | 0.065 | 33.6 | COc1nc(-c2cccc(-c3cccc(COc4nc(OCc5cncc(C#N)c5)c(CNC[C@@H](O)CC(=O)O)cc4Br)c3Cl)c2Cl)ccc1C1=NCCN1 [Example 558]
22 | 53 | 0.064 | 18.7 | COc1nc(-c2cccc(-c3cccc(COc4nc(OCc5cncc(C#N)c5)c(CN[C@@](C)(CO)C(=O)O)cc4Br)c3Cl)c2Cl)ccc1C1=NCCN1 [Example 559]
23 | 163 | 0.135 | 77.8 | N#Cc1cncc(COc2nc(OCc3cccc(-c4cccc(-c5ccc(OCCNCCO)cc5)c4Cl)c3Cl)c(Cl)cc2CN2C[C@@H](O)C[C@H]2C(=O)O)c1 [Example 560]
24 | 146 | 0.531 | 193 | N#Cc1cncc(COc2nc(OCc3cccc(-c4cccc(-c5ccc(OCCNCCO)cc5)c4Cl)c3Cl)c(Cl)cc2CNC[C@@H](O)CC(=O)O)c1 [Example 561]
25 | 162 | 0.102 | 126 | COc1nc(OCc2cccc(-c3cccc(COc4nc(OC)c(CNC[C@@H](O)CC(=O)O)cc4Br)c3C#N)c2Cl)c(Br)cc1CNC[C@@H](O)CC(=O)O [Example 562]
26 | 112 | 0.259 | 73.4 | N#Cc1cc(C#N)cc(COc2nc(OCc3cccc(-c4cccc(-c5ccc(OCCN6CC7(CCC(=O)N7)C6)cc5)c4Cl)c3Cl)c(Cl)cc2CNC[C@@H](O)CC(=O)O)c1 [Example 565]
27 | 86 | 0.11 | 39.4 | C[C@@](CO)(NCc1cc(Cl)c(OCc2cccc(-c3cccc(-c4ccc(OCCN5CC6(CCC(=O)N6)C5)cc4)c3Cl)c2Cl)nc1OCc1cc(C#N)cc(C#N)c1)C(=O)O [Example 566]
28 | 85 | 0.327 | 68.7 | N#Cc1cc(C#N)cc(COc2nc(OCc3cccc(-c4cccc(-c5ccc(CN6CC7(CCC(=O)N7)C6)cc5)c4Cl)c3Cl)c(Cl)cc2CNC[C@@H](O)CC(=O)O)c1 [Example 567]
29 | 65 | 0.064 | 44.3 | COc1nc(-c2cccc(-c3cccc(COc4nc(OCc5cc(C#N)cc(C#N)c5)c(CNC[C@@H](O)CC(=O)O)cc4Cl)c3Cl)c2Cl)ccc1CNC[C@@H]1CCC(=O)N1 [Example 568]
30 | 74 | 0.085 | 128 | Cc1c(COc2cc(OCc3cncc(C#N)c3)c(CNC[C@@H](O)CC(=O)O)cc2Cl)cccc1-c1cccc(-c2ccc3c(CNC[C@@H](O)CC(=O)O)ccnc3c2)c1C [Example 569]
31 | 115 | 0.092 | 56.5 | Cc1c(COc2cc(OCc3cncc(C#N)c3)c(CN[C@@](C)(CO)C(=O)O)cc2Cl)cccc1-c1cccc(-c2ccc(CNCCCS(N)(=O)=O)cc2)c1C [Example 570]
32 | 126 | 0.091 | 156 | Cc1c(COc2cc(OCc3cncc(C#N)c3)c(CN[C@@](C)(CO)C(=O)O)cc2Cl)cccc1-c1cccc(-c2ccc(CNCCS(C)(=O)=O)cc2)c1C [Example 571]
33 | 129 | 0.431 | 453 | Cc1c(COc2cc(OCc3cncc(C#N)c3)c(CNC[C@@H](O)CC(=O)O)cc2Cl)cccc1-c1cccc(-c2ccc(CN[C@H]3CCCNC3=O)cc2)c1C [Example 572]
34 | 120 | 0.154 | 215 | Cc1c(COc2cc(OCc3cncc(C#N)c3)c(CN[C@@](C)(CO)C(=O)O)cc2Cl)cccc1-c1cccc(-c2ccc(CN[C@H]3CCCNC3=O)cc2)c1C [Example 573]
35 | 72 | 0.071 | 56 | Cc1c(COc2cc(OCc3cncc(C#N)c3)c(CNC[C@@H](O)CC(=O)O)cc2Cl)cccc1-c1cccc(-c2ccc(CNC[C@@H]3CCC(=O)N3)cc2)c1C [Example 574]
36 | 34 | 0.073 | 40.6 | Cc1c(COc2cc(OCc3cncc(C#N)c3)c(CN[C@@](C)(CO)C(=O)O)cc2Cl)cccc1-c1cccc(-c2ccc(CNC[C@@H]3CCC(=O)N3)cc2)c1C [Example 575]
